The supplement of paper PMC11061612

Tests used:
Carboplatin = compound: C1CC(C1)(C(=O)[O-])C(=O)[O-].N.N.[Pt+2] [Carboplatin]; conditions: max 10 µM
Outline: (§1)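 After 24 hours at 37°C and 5% CO2 in 1536-well plates holding 7.5 μl of DMEM/F12 or RPMI with 10% FBS, cancer cell lines were dosed for 72 hours, with final DMSO typically 0.2%. Viability came from CellTiter-Glo 2.0 luminescence, scaled between the means of blank wells and DMSO wells. A non-linear mixed effects model fitted a two-parameter logistic curve to each dose response to give the single-agent IC50.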

AZD5363 = compound: C1CN(CCC1(C(=O)N[C@@H](CCO)C2=CC=C(C=C2)Cl)N)C3=NC=NC4=C3C=CN4 [AZD5363]; conditions: max 10 µM
Outline: as §1

AZD1775 = compound: C=CCn1c(=O)c2cnc(Nc3ccc(N4CCN(C)CC4)cc3)nc2n1-c1cccc(C(C)(C)O)n1 [AZD1775]; conditions: max 3 µM
Outline: as §1

Trametinib = compound: CC(=O)Nc1cccc(-n2c(=O)n(C3CC3)c(=O)c3c(Nc4ccc(I)cc4F)n(C)c(=O)c(C)c32)c1 [Trametinib]; conditions: max 1 µM
Outline: as §1

Paclitaxel = compound: CC(=O)O[C@H]1C(=O)[C@@]2(C)[C@H]([C@H](OC(=O)c3ccccc3)[C@]3(O)C[C@H](OC(=O)[C@H](O)[C@@H](NC(=O)c4ccccc4)c4ccccc4)C(C)=C1C3(C)C)[C@]1(OC(C)=O)CO[C@@H]1C[C@@H]2O [Paclitaxel]; conditions: max 3 µM
Outline: as §1

Palbociclib = compound: CC(=O)c1c(C)c2cnc(Nc3ccc(N4CCNCC4)cn3)nc2n(C2CCCC2)c1=O [Palbociclib]; conditions: max 10 µM
Outline: as §1

AZD1390 = compound: CC(C)n1c(=O)n(C)c2cnc3cc(F)c(-c4ccc(OCCCN5CCCCC5)nc4)cc3c21 [AZD1390]; conditions: max 0.3 µM
Outline: as §1

Venetoclax = compound: CC1(C)CCC(CN2CCN(c3ccc(C(=O)NS(=O)(=O)c4ccc(NCC5CCOCC5)c([N+](=O)[O-])c4)c(Oc4cnc5[nH]ccc5c4)c3)CC2)=C(c2ccc(Cl)cc2)C1 [Venetoclax]; conditions: max 1 µM
Outline: as §1

Dasatinib = compound: CC1=C(C(=CC=C1)Cl)NC(=O)C2=CN=C(S2)NC3=CC(=NC(=N3)C)N4CCN(CC4)CCO [Dasatinib]; conditions: max 2 µM
Outline: as §1

SG3199 = compound: CC1=CN2[C@@H](C1)C=NC3=CC(=C(C=C3C2=O)OC)OCCCCCOC4=C(C=C5C(=C4)N=C[C@@H]6CC(=CN6C5=O)C)OC [SG3199]; conditions: max 0.001 µM
Outline: as §1

AZD2811 = compound: CCN(CCO)CCCOc1ccc2c(Nc3cc(CC(=O)Nc4cccc(F)c4)[nH]n3)ncnc2c1 [AZD2811]; conditions: max 1 µM
Outline: as §1

SN-38 = compound: CCc1c2c(nc3ccc(O)cc13)-c1cc3c(c(=O)n1C2)COC(=O)[C@]3(O)CC [SN-38]; conditions: max 0.3 µM
Outline: as §1

AZD0156 = compound: CN(C)CCCOc1ccc(-c2ccc3ncc4c(c3c2)n(C2CCOCC2)c(=O)n4C)cn1 [AZD0156]; conditions: max 3 µM
Outline: as §1

AZD4320 = compound: CN(CC[C@H](CSC1=CC=CC=C1)NC2=C(C=C(C=C2)S(=O)(=O)NC(=O)C3=CC=C(C=C3)N4CCC(CC4)[C@H](C5=CC=CC=C5C6=CC=C(C=C6)Cl)O)S(=O)(=O)C(F)(F)F)CCO [AZD4320]; conditions: max 1 µM
Outline: as §1

Alisertib = compound: COc1cc(Nc2ncc3c(n2)-c2ccc(Cl)cc2C(c2c(F)cccc2OC)=NC3)ccc1C(=O)O [Alisertib]; conditions: max 10 µM
Outline: as §1

Etoposide = compound: COc1cc([C@@H]2c3cc4c(cc3[C@@H](O[C@@H]3O[C@@H]5CO[C@@H](C)O[C@H]5[C@H](O)[C@H]3O)[C@H]3COC(=O)[C@H]23)OCO4)cc(OC)c1O [Etoposide]; conditions: max 10 µM
Outline: as §1

Gefitinib = compound: COc1cc2ncnc(Nc3ccc(F)c(Cl)c3)c2cc1OCCCN1CCOCC1 [Gefitinib]; conditions: max 10 µM
Outline: as §1

Prexasertib = compound: COc1cccc(OCCCN)c1-c1cc(Nc2cnc(C#N)cn2)n[nH]1 [Prexasertib]; conditions: max 1 µM
Outline: as §1

Doxorubicin = compound: COc1cccc2c1C(=O)c1c(O)c3c(c(O)c1C2=O)C[C@@](O)(C(=O)CO)C[C@@H]3O[C@H]1C[C@H](N)[C@H](O)[C@H](C)O1 [Doxorubicin]; conditions: max 1 µM
Outline: as §1

AZD5153 = compound: COc1nnc2ccc(N3CCC(c4ccc(OCCN5CCN(C)C(=O)[C@H]5C)cc4)CC3)nn12 [AZD5153]; conditions: max 1 µM
Outline: as §1

Lapatinib = compound: CS(=O)(=O)CCNCc1ccc(-c2ccc3ncnc(Nc4ccc(OCc5cccc(F)c5)c(Cl)c4)c3c2)o1 [Lapatinib]; conditions: max 10 µM
Outline: as §1

AZD8186 = compound: C[C@@H](Nc1cc(F)cc(F)c1)c1cc(C(=O)N(C)C)cc2c(=O)cc(N3CCOCC3)oc12 [AZD8186]; conditions: max 10 µM
Outline: as §1

Crizotinib = compound: C[C@@H](Oc1cc(-c2cnn(C3CCNCC3)c2)cnc1N)c1c(Cl)ccc(F)c1Cl [Crizotinib]; conditions: max 10 µM
Outline: as §1

Savolitinib = compound: C[C@@H](c1ccc2nccn2c1)n1nnc2ncc(-c3cnn(C)c3)nc21 [Savolitinib]; conditions: max 1 µM
Outline: as §1

AZD6738 = compound: C[C@@H]1COCCN1C2=NC(=NC(=C2)C3(CC3)[S@](=N)(=O)C)C4=C5C=CNC5=NC=C4 [AZD6738]; conditions: max 10 µM
Outline: as §1

AZD5991 = compound: Cc1c2c(nn1C)CSCc1cc(n(C)n1)CSc1cc(c3ccccc3c1)OCCCc1c(C(=O)O)n(C)c3c-2c(Cl)ccc13 [AZD5991]; conditions: max 1 µM
Outline: as §1

AZD7648 = compound: Cc1cc2ncnn2cc1Nc1ncc2c(n1)n(C1CCOCC1)c(=O)n2C [AZD7648]; conditions: max 10 µM
Outline: as §1

Taselisib = compound: Cc1nc(-c2cn3c(n2)-c2ccc(-c4cnn(C(C)(C)C(N)=O)c4)cc2OCC3)n(C(C)C)n1 [Taselisib]; conditions: max 10 µM
Outline: as §1

Selumetinib = compound: Cn1cnc2c(F)c(Nc3ccc(Br)cc3Cl)c(C(=O)NOCCO)cc21 [Selumetinib]; conditions: max 10 µM
Outline: as §1

SRA737 = compound: N#Cc1cnc(Nc2cc(NC[C@H]3CNCCO3)c(C(F)(F)F)cn2)cn1 [SRA737]; conditions: max 10 µM
Outline: as §1

MK-2206 = compound: NC1(c2ccc(-c3nc4ccn5c(=O)[nH]nc5c4cc3-c3ccccc3)cc2)CCC1 [MK-2206]; conditions: max 10 µM
Outline: as §1

Gemcitabine = compound: Nc1ccn([C@@H]2O[C@H](CO)[C@@H](O)C2(F)F)c(=O)n1 [Gemcitabine]; conditions: max 0.3 µM
Outline: as §1

[1] = compound: O=C(Nc1ccc2[nH]nc(-c3ccncc3)c2c1)[C@@H]1CCN(CC(=O)N2CCN(c3ccc(-c4ncccn4)cc3)CC2)C1; conditions: max 5 µM
Outline: as §1

Olaparib = compound: O=C(c1cc(Cc2n[nH]c(=O)c3ccccc23)ccc1F)N1CCN(C(=O)C2CC2)CC1 [Olaparib]; conditions: max 10 µM
Outline: as §1

5-Fluorouracil = compound: O=c1[nH]cc(F)c(=O)[nH]1 [5-Fluorouracil]; conditions: max 20 µM
Outline: as §1

Cell Line	IC50, cell viability 72 h (Carboplatin)	IC50, cell viability 72 h (AZD5363)	IC50, cell viability 72 h (AZD1775)	IC50, cell viability 72 h (Trametinib)	IC50, cell viability 72 h (Paclitaxel)	IC50, cell viability 72 h (Palbociclib)	IC50, cell viability 72 h (AZD1390)	IC50, cell viability 72 h (Venetoclax)	IC50, cell viability 72 h (Dasatinib)	IC50, cell viability 72 h (SG3199)	IC50, cell viability 72 h (AZD2811)	IC50, cell viability 72 h (SN-38)	IC50, cell viability 72 h (AZD0156)	IC50, cell viability 72 h (AZD4320)	IC50, cell viability 72 h (Alisertib)	IC50, cell viability 72 h (Etoposide)	IC50, cell viability 72 h (Gefitinib)	IC50, cell viability 72 h (Prexasertib)	IC50, cell viability 72 h (Doxorubicin)	IC50, cell viability 72 h (AZD5153)	IC50, cell viability 72 h (Lapatinib)	IC50, cell viability 72 h (AZD8186)	IC50, cell viability 72 h (Crizotinib)	IC50, cell viability 72 h (Savolitinib)	IC50, cell viability 72 h (AZD6738)	IC50, cell viability 72 h (AZD5991)	IC50, cell viability 72 h (AZD7648)	IC50, cell viability 72 h (Taselisib)	IC50, cell viability 72 h (Selumetinib)	IC50, cell viability 72 h (SRA737)	IC50, cell viability 72 h (MK-2206)	IC50, cell viability 72 h (Gemcitabine)	IC50, cell viability 72 h [1]	IC50, cell viability 72 h (Olaparib)	IC50, cell viability 72 h (5-Fluorouracil)
P31-FUJ (Acute Myeloid Leukemia)	> 10000 nM	2410 nM	83.1 nM	616 nM	5.09 nM	> 10000 nM	> 300 nM	758 nM	> 2000 nM	> 1 nM	24 nM	11.7 nM	> 3000 nM	243 nM	1060 nM	2760 nM	> 10000 nM	2.72 nM	255 nM	148 nM	> 10000 nM	> 10000 nM	1740 nM	> 1000 nM	1290 nM	157 nM	> 10000 nM	3310 nM	8970 nM	534 nM	1680 nM	179 nM	1570 nM	> 10000 nM	> 20000 nM
SNG-M (Endometrial Carcinoma)	> 10000 nM	> 10000 nM	874 nM	> 1000 nM	6.87 nM	> 10000 nM	> 300 nM	> 1000 nM	259 nM	> 1 nM	> 1000 nM	153 nM	> 3000 nM	> 1000 nM	2440 nM	> 10000 nM	> 10000 nM	23.1 nM	> 1000 nM	> 1000 nM	> 10000 nM	> 10000 nM	> 10000 nM	> 1000 nM	1310 nM	> 1000 nM	> 10000 nM	3820 nM	> 10000 nM	5190 nM	> 10000 nM	33 nM	> 5000 nM	> 10000 nM	> 20000 nM
NOMO-1 (Acute Myeloid Leukemia)	> 10000 nM	> 10000 nM	215 nM	3.07 nM	7.09 nM	6660 nM	> 300 nM	627 nM	> 2000 nM	> 1 nM	905 nM	7.23 nM	> 3000 nM	> 1000 nM	4160 nM	2120 nM	> 10000 nM	5.79 nM	542 nM	50.4 nM	> 10000 nM	9000 nM	8600 nM	> 1000 nM	1660 nM	210 nM	> 10000 nM	1510 nM	138 nM	1160 nM	> 10000 nM	10.1 nM	591 nM	> 10000 nM	2210 nM
